Data on 20 molecules can be found in patent publication US20230295157A1, “3-(1H-IMIDAZOL-2-YL)-2,3,8,8A-TETRAHYDROINDOLIZIN-5(1H)-ONE DERIVATIVES USEFUL AS FACTOR XIA INHIBITORS” (JANSSEN PHARMACEUTICA NV, priority 2020, published 2023).

The target of experiment [1] is human plasma kallikrein (Homo sapiens (Human), UniProt P03952). The experiment can be described thus: Kallikrein inhibition assay (FLINT) utilizing a quenched AMC peptide substrate. It is filed as biochemical. As to conditions: 30 min preincubation, read-out: Kallikrein Kin Inh IC50. In a few lines: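 Fluorogenic Z-Gly-Pro-Arg-AMC cleavage (50 μM substrate, 2 nM kallikrein, Tris pH 7.5, CaCl2, BSA, CHAPS, 2% DMSO) read kinetically at 340/440 nm for 30 min after 30-min compound pre-incubation. Compounds in 11-point 3-fold series from 1 μM; percent inhibition fitted to four-parameter equation for IC50.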

For experiment [2], the target named is Factor XIa (Homo sapiens (Human), UniProt P03951). The experiment can be described thus: Factor XIa inhibition assay (FLINT) utilizing a fluorophore-quencher pair peptide substrate. To be noted: 30 min preincubation, kinetic reads over 30 min, read-out: FXIa Kin Inh IC50. The format is biochemical. The method, boiled down: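 FXIa ([…]) preincubated 30 min with compound (11-point 3-fold dilution, top 100 nM, 2% DMSO), then 15 μM quenched FXI Arg146-based peptide added; Tris pH 7.5, CaCl2, BSA, CHAPS. Fluorescence 485/520 nm read kinetically every 5 min over 30 min at RT; IC50 by 4-parameter fit.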

Setting [3] is: kinetic reads over 30 min, Z-Gly-Pro-Arg-AMC substrate 50 μM.
Where [4] appears, read: 5Fam-KLTRAETV-K5Tamra substrate 15 μM.

Where two headings read alike, the source gives them in different places.

By IC50 is commonly meant the concentration that inhibits the measured activity by half.

human plasma kallikrein, sequence (P03952 391-638): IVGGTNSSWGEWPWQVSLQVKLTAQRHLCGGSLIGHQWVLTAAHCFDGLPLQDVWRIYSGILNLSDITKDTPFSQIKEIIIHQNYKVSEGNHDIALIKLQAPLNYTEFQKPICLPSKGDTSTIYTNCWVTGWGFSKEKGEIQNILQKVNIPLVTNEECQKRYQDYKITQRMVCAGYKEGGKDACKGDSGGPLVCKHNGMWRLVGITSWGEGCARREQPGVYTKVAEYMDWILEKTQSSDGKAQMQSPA
human plasma kallikrein, sequence (P03952 20-390 partner): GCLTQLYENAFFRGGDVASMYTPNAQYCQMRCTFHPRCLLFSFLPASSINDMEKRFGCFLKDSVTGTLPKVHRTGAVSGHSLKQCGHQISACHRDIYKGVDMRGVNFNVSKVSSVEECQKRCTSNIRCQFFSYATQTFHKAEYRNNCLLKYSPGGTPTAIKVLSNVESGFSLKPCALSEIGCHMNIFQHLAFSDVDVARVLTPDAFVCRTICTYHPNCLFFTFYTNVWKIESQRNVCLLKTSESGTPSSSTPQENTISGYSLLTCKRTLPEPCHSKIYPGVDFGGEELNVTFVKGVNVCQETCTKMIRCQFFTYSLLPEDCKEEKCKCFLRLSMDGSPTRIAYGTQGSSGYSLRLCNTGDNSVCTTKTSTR
Factor XIa, sequence (P03951 388-625): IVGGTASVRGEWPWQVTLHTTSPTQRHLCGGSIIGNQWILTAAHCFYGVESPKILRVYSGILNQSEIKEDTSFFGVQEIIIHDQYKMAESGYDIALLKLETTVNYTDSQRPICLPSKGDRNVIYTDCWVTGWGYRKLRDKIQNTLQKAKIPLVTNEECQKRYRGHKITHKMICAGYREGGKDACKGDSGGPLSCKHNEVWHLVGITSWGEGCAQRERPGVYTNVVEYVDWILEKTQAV
Factor XIa, sequence (P03951 19-387 partner): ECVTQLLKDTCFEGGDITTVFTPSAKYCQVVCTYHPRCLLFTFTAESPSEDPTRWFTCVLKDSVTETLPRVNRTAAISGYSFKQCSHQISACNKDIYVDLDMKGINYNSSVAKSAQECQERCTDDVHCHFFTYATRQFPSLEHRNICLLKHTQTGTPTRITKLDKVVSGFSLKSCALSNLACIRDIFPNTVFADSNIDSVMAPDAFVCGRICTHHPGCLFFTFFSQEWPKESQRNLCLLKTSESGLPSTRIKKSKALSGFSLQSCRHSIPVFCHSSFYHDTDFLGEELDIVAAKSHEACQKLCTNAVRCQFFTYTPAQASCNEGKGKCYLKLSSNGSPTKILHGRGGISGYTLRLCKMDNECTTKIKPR

With `CCOC(=O)Nc1ncccc1-c1c[nH]c([C@@H]2CC[C@H]3CC(c4c(-n5cnnn5)ccc(Cl)c4F)=CC(=O)N32)n1` [Example 262, Ethyl N-[3-[2-[(3S,8aS)-7-[3-chloro-2-fluoro-6-(tetrazol-1-yl)phenyl]-5-oxo-2,3,8,8a-tetrahydro-1H-indolizin-3-yl]-1H-imidazol-4-yl]-2-pyridyl]carbamate], the IC50 in experiment [1] (setting [3]) was 0.15 µM; in experiment [2] (setting [4]), 45.8 nM.
In the same order, the values of `CCOC(=O)Nc1cnccc1-c1c[nH]c([C@@H]2CC[C@H]3CC(c4c(-n5cnnn5)ccc(Cl)c4F)=CC(=O)N32)n1` [Example 263, Ethyl N-[4-[2-[(3S,8aS)-7-[3-chloro-2-fluoro-6-(tetrazol-1-yl)phenyl]-5-oxo-2,3,8,8a-tetrahydro-1H-indolizin-3-yl]-1H-imidazol-4-yl]-3-pyridyl]carbamate] are 0.0337 µM and 2.3 nM.
For `COc1ccc(-c2c[nH]c([C@@H]3CC[C@H]4CC(c5c(-n6cnnn6)ccc(Cl)c5F)=CC(=O)N43)n2)c(NC(=O)C2CC2)c1` [Example 264, N-[2-[2-[(3S,8aS)-7-[3-Chloro-2-fluoro-6-(tetrazol-1-yl)phenyl]-5-oxo-2,3,8,8a-tetrahydro-1H-indolizin-3-yl]-1H-imidazol-4-yl]-5-methoxy-phenyl]cyclopropanecarboxamide], the IC50 in experiment [1] (setting [3]) was found to be 0.0021 µM; in experiment [2] (setting [4]), 1.1 nM.
Regarding `CNc1n[nH]c2cc(-c3cnc([C@@H]4CC[C@H]5CC(c6c(-n7cnnn7)ccc(Cl)c6F)=CC(=O)N54)[nH]3)ccc12` [Example 265, (3S,8aS)-7-[3-Chloro-2-fluoro-6-(tetrazol-1-yl)phenyl]-3-[5-[3-(methylamino)-1H-indazol-6-yl]-1H-imidazol-2-yl]-2,3,8,8a-tetrahydro-1H-indolizin-5-one], the IC50 stood at 0.001 µM in experiment [1] (setting [3]) and 0.4 nM in experiment [2] (setting [4]).
As for `COc1ccc(-c2c[nH]c([C@@H]3CC[C@@H]4CC(c5c(-n6cnnn6)ccc(Cl)c5F)=CC(=O)N43)n2)c(NC(=O)C2CC2)c1` [Example 266, N-(2-(2-((3S,8aR)-7-(3-Chloro-2-fluoro-6-(1H-tetrazol-1-yl)phenyl)-5-oxo-1,2,3,5,8,8a-hexahydroindolizin-3-yl)-1H-imidazol-4-yl)-5-methoxyphenyl)cyclopropanecarboxamide], the IC50 turned out to be 0.0011 µM in experiment [1] (setting [3]) and 0.9 nM in experiment [2] (setting [4]).
In the same order, the values of `O=C(Nc1ccncc1-c1c[nH]c([C@@H]2CC[C@H]3CC(c4c(-n5cnnn5)ccc(Cl)c4F)=CC(=O)N32)n1)C1CC1` [Example 267, N-[3-[2-[(3S,8aS)-7-[3-Chloro-2-fluoro-6-(tetrazol-1-yl)phenyl]-5-oxo-2,3,8,8a-tetrahydro-1H-indolizin-3-yl]-1H-imidazol-4-yl]-4-pyridyl]cyclopropanecarboxamide] are 0.009 µM and 1 nM.
The corresponding values for `CCOC(=O)Nc1ccncc1-c1c[nH]c([C@@H]2CC[C@H]3CC(c4c(-n5cnnn5)ccc(Cl)c4F)=CC(=O)N32)n1` [Example 268, Ethyl N-[3-[2-[(3S,8aS)-7-[3-chloro-2-fluoro-6-(tetrazol-1-yl)phenyl]-5-oxo-2,3,8,8a-tetrahydro-1H-indolizin-3-yl]-1H-imidazol-4-yl]-4-pyridyl]carbamate] are 0.286 µM and 68.1 nM.
Regarding `CNc1ncccc1-c1cnc([C@@H]2CC[C@H]3CC(c4c(-n5cnnn5)ccc(Cl)c4F)=CC(=O)N32)[nH]1` [Example 269, (3S,8aS)-7-[3-Chloro-2-fluoro-6-(tetrazol-1-yl)phenyl]-3-[5-[2-(methylamino)-3-pyridyl]-1H-imidazol-2-yl]-2,3,8,8a-tetrahydro-1H-indolizin-5-one], the IC50 in experiment [1] (setting [3]) was 0.793 µM; in experiment [2] (setting [4]), over 100 nM.
For `O=C1C=C(c2c(-n3cnnn3)ccc(Cl)c2F)C[C@@H]2CC[C@@H](c3ncc(-c4ccc5[nH]c(=O)ccc5c4)[nH]3)N12` [Example 270, 6-[2-[(3S,8aS)-7-[3-Chloro-2-fluoro-6-(tetrazol-1-yl)phenyl]-5-oxo-2,3,8,8a-tetrahydro-1H-indolizin-3-yl]-1H-imidazol-5-yl]-1H-quinolin-2-one], the IC50 is 0.0004 µM in experiment [1] (setting [3]) and 0.2 nM in experiment [2] (setting [4]).
On to `Nc1ccncc1-c1c[nH]c([C@@H]2CC[C@H]3CC(c4c(-n5cnnn5)ccc(Cl)c4F)=CC(=O)N32)n1` [Example 272, (3S,8aS)-3-(4-(4-Aminopyridin-3-yl)-1H-imidazol-2-yl)-7-(3-chloro-2-fluoro-6-(1H-tetrazol-1-yl)phenyl)-2,3,8,8a-tetrahydroindolizin-5(1H)-one], for which the IC50 in experiment [1] (μM, kinetic reads) was over 1 µM; in experiment [2] (setting [4]) it was over 100 nM.
For the molecule `O=C1C=C(c2c(-n3cnnn3)ccc(Cl)c2F)CC2CC[C@@H](c3ncc(-c4ccc5[nH]c(=O)ncc5c4)[nH]3)N12` (stereo partly drawn) [Example 273, 6-(2-((3S)-7-(3-Chloro-2-fluoro-6-(1H-tetrazol-1-yl)phenyl)-5-oxo-1,2,3,5,8,8a-hexahydroindolizin-3-yl)-1H-imidazol-5-yl)quinazolin-2(1H)-one], the 50% inhibitory concentration (IC50) was determined as 0.002 µM in experiment [1] (setting [3]) and 0.5 nM in experiment [2] (setting [4]).
As to `Cn1cnc(-c2c[nH]c([C@@H]3CC[C@H]4CC(c5c(-n6cnnn6)ccc(Cl)c5F)=CC(=O)N43)n2)n1` [Example 274, (3S,8aS)-7-(3-Chloro-2-fluoro-6-(1H-tetrazol-1-yl)phenyl)-3-(4-(1-methyl-1H-1,2,4-triazol-3-yl)-1H-imidazol-2-yl)-2,3,8,8a-tetrahydroindolizin-5(1H)-one], the IC50 is over 1 µM in experiment [1] (μM, kinetic reads) and over 100 nM in experiment [2] (setting [4]).
In the case of `Cn1cc(NC(=O)C2CC2)c(-c2c[nH]c([C@@H]3CC[C@H]4CC(c5c(-n6cnnn6)ccc(Cl)c5F)=CC(=O)N43)n2)n1` [Example 275, N-(3-(2-((3S,8aS)-7-(3-Chloro-2-fluoro-6-(1H-tetrazol-1-yl)phenyl)-5-oxo-1,2,3,5,8,8a-hexahydroindolizin-3-yl)-1H-imidazol-4-yl)-1-methyl-1H-pyrazol-4-yl)cyclopropanecarboxamide], the IC50 in experiment [1] (setting [3]) is 0.0156 µM; in experiment [2] (setting [4]) it was 24.4 nM.
On to `COc1ccc(-c2c[nH]c([C@@H]3CCC4CC(c5c(-n6cnnn6)ccc(Cl)c5F)=CC(=O)N43)n2)c(NC(=O)C2CC2)c1` (stereo partly drawn) [Example 276, N-(2-(2-((3S)-7-(3-Chloro-2-fluoro-6-(1H-tetrazol-1-yl)phenyl)-5-oxo-1,2,3,5,8,8a-hexahydroindolizin-3-yl)-1H-imidazol-4-yl)-5-methoxyphenyl)cyclopropanecarboxamide], for which the results for the IC50 in experiment [1] (setting [3]) and in experiment [2] (setting [4]) were 0.0012 µM and 0.6 nM, respectively.
`O=C1Cc2cc(-c3cnc([C@@H]4CC[C@H]5CC(c6c(-n7cnnn7)ccc(Cl)c6F)=CC(=O)N54)[nH]3)ccc2N1` [Example 283, 5-(2-((3S,8aS)-7-(3-Chloro-2-fluoro-6-(1H-tetrazol-1-yl)phenyl)-5-oxo-1,2,3,5,8,8a-hexahydroindolizin-3-yl)-1H-imidazol-5-yl)indolin-2-one]: the IC50 in experiment [1] (setting [3]) stood at 0.0059 µM; in experiment [2] (setting [4]) it was 3.5 nM.
Take `CO[C@H]1C[C@@H](c2nc(-c3ccc(N)nc3F)c[nH]2)N2C(=O)C=C(c3c(-n4cnnn4)ccc(Cl)c3F)CC12` (stereo partly drawn) [Example 285, (1 S,3S)-3-(4-(6-Amino-2-fluoropyridin-3-yl)-1H-imidazol-2-yl)-7-(3-chloro-2-fluoro-6-(1H-tetrazol-1-yl)phenyl)-1-methoxy-2,3,8,8a-tetrahydroindolizin-5(1H)-one]: the IC50 worked out at 0.207 µM in experiment [1] (setting [3]) and 9.1 nM in experiment [2] (setting [4]).
The corresponding values for `CNC(=O)c1ccccc1-c1cnc([C@@H]2CCC3CC(c4c(-n5cnnn5)ccc(Cl)c4F)=CC(=O)N32)[nH]1` (stereo partly drawn) [Example 287, 2-(2-((3S)-7-(3-chloro-2-fluoro-6-(1H-tetrazol-1-yl)phenyl)-5-oxo-1,2,3,5,8,8a-hexahydroindolizin-3-yl)-1H-imidazol-5-yl)-N-methylbenzamide] are 0.38 µM and about 30.4 nM.
Regarding `CN(C)C(=O)c1ccccc1-c1c[nH]c([C@@H]2CCC3CC(c4c(-n5cnnn5)ccc(Cl)c4F)=CC(=O)N32)n1` (stereo partly drawn) [Example 288, 2-(2-((3S)-7-(3-Chloro-2-fluoro-6-(1H-tetrazol-1-yl)phenyl)-5-oxo-1,2,3,5,8,8a-hexahydroindolizin-3-yl)-1H-imidazol-4-yl)-N,N-dimethylbenzamide], the IC50 in experiment [1] (μM, kinetic reads) is 1.1 µM; in experiment [2] (setting [4]), over 200 nM.
Turning to `CN(C)c1ccccc1-c1c[nH]c([C@@H]2CCC3CC(c4c(-n5cnnn5)ccc(Cl)c4F)=CC(=O)N32)n1` (stereo partly drawn) [Example 289, (3S)-7-(3-Chloro-2-fluoro-6-(1H-tetrazol-1-yl)phenyl)-3-(4-(2-(dimethylamino)phenyl)-1H-imidazol-2-yl)-2,3,8,8a-tetrahydroindolizin-5(1H)-one], the IC50 in experiment [1] (setting [3]) was 0.492 µM; in experiment [2] (5Fam-[…]-K5Tamra substrate 15 μM), over 200 nM.
Consider `NC(=O)c1ccccc1-c1cnc([C@@H]2CCC3CC(c4c(-n5cnnn5)ccc(Cl)c4F)=CC(=O)N32)[nH]1` (stereo partly drawn) [Example 290, 2-(2-((3S)-7-(3-Chloro-2-fluoro-6-(1H-tetrazol-1-yl)phenyl)-5-oxo-1,2,3,5,8,8a-hexahydroindolizin-3-yl)-1H-imidazol-5-yl)benzamide], for which the IC50 in experiment [1] (μM, kinetic reads) was determined as 1.2 µM; in experiment [2] (setting [4]), 134 nM.
